From ChEMBL document CHEMBL1201862, “PubChem BioAssay data set” (2004) come the findings set out here.

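Cultured in 96-well plates, cells were exposed to test compound for 48 hours across five concentrations. At the GI50, growth is halved.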 Calls of active or inactive are those of the source. Rule as the data show it: active = GI50 up to about 1.1 µM and inactive = higher.

Some test systems named below: HL-60; LOX IMVI; 786-0; SW-620; PC-3; MDA-MB-231; SK-MEL-28; MOLT-4; RPMI-8226; ACHN; M14; OVCAR-4; SK-OV-3; SF-539; SNB-19; OVCAR-8; HT-29; BT-549; SK-MEL-5.
Test in all cases: NCI anticancer screen, dose series, 48 h

For `CN(CCNC(=O)c1c[nH]c2c1ccc1ccccc12)CCNC(=O)c1c[nH]c2c1ccc1ccccc12`, the GI50 in the experiment with HL-60 was 1.95 µM (inactive); in the experiment on LOX IMVI, 1.64 µM (inactive); in the experiment with 786-0, 1.82 µM (inactive); in the experiment with SW-620 it was 1.91 µM (inactive); in the experiment on PC-3, 2.26 µM (inactive); with MDA-MB-231 it was 1.59 µM (inactive). The GI50 was 2 µM (inactive) with SK-MEL-28; 2.01 µM (inactive) with MOLT-4; 3.15 µM (inactive) in the experiment with RPMI-8226; 1.86 µM (inactive) with ACHN; 1.84 µM (inactive) with M14; 3.54 µM (inactive) with OVCAR-4. In addition, the GI50 is 4.23 µM (inactive) in the experiment with SK-OV-3; 1.15 µM (inactive) in the experiment with SF-539; 2.23 µM (inactive) in the experiment with SNB-19; 1.93 µM (inactive) with OVCAR-8; 1.87 µM (inactive) with HT-29; 9.35 µM (inactive) with BT-549. Further, in the experiment on SK-MEL-5, the GI50 is 7.29 µM (inactive).

In the case of `Cc1cccc(NC(=S)Nc2ccc([N+](=O)[O-])cc2)n1`, the GI50 in the experiment with HL-60, in the experiment with LOX IMVI, in the experiment on 786-0, in the experiment on SW-620, with PC-3 and in the experiment on MDA-MB-231 was > 100 µM (inactive) each time. The GI50 in the experiment on SK-MEL-28, in the experiment on MOLT-4, with RPMI-8226, in the experiment with ACHN, in the experiment on M14 and in the experiment with OVCAR-4 was > 100 µM (inactive) throughout. For the same compound, the GI50 in the experiment with SK-OV-3, in the experiment with SF-539, with SNB-19, with OVCAR-8, in the experiment with HT-29 and with BT-549 was > 100 µM (inactive) in each case. The GI50 in the experiment with SK-MEL-5 is > 100 µM (inactive).

For the compound `O=C1CC(NCCCNC2CC(=O)c3c(Br)sc(Br)c32)c2c(Br)sc(Br)c21` (stereo not given), the GI50 with HL-60 is 1.38 µM (inactive); with LOX IMVI, 1.4 µM (inactive); in the experiment with 786-0, 0.675 µM (active); with SW-620, 2.31 µM (inactive); with PC-3, 1.57 µM (inactive); in the experiment on MDA-MB-231, 2.19 µM (inactive). Also, the GI50 in the experiment on SK-MEL-28 is 3.15 µM (inactive); in the experiment with MOLT-4 it was 0.42 µM (active); with RPMI-8226, 0.118 µM (active); in the experiment with ACHN, 1.8 µM (inactive); with M14, 2 µM (inactive); in the experiment on OVCAR-4, 2.93 µM (inactive). Also, the GI50 in the experiment on SK-OV-3 is 4.1 µM (inactive); with SF-539, 2.47 µM (inactive); with SNB-19, 2.45 µM (inactive); with OVCAR-8 it was 1.66 µM (inactive); in the experiment with HT-29, 2.28 µM (inactive); in the experiment with BT-549, 1.73 µM (inactive). Moreover, the GI50 with SK-MEL-5 is 2.04 µM (inactive).

For the compound `C/C=C/C=C\C1OC(O)([C@H](CC)C(=O)NC/C=C/C=C(\C)[C@H](OC)C(C)C2OC(\C=C/C=C/C=C(\C)C(=O)c3c(O)ccn(C)c3=O)[C@H](O)[C@@H]2O)C(O)C(O)C1(C)C` (stereo not given in full), the GI50 in the experiment on HL-60 was 54.3 µM (inactive); with LOX IMVI, 69.5 µM (inactive); with 786-0, 71 µM (inactive); with SW-620, > 100 µM (inactive); with PC-3, 64.3 µM (inactive); in the experiment with MDA-MB-231 it was > 100 µM (inactive). Besides, the GI50 is > 100 µM (inactive) in the experiment with SK-MEL-28; 41.9 µM (inactive) in the experiment with MOLT-4; 20.3 µM (inactive) in the experiment with RPMI-8226; > 100 µM (inactive) in the experiment with ACHN; > 100 µM (inactive) with M14; > 100 µM (inactive) with OVCAR-4. Also, the GI50 in the experiment on SK-OV-3 was > 100 µM (inactive); in the experiment with SF-539, > 100 µM (inactive); in the experiment with SNB-19, > 100 µM (inactive); in the experiment with OVCAR-8, 82.8 µM (inactive); with HT-29, 55 µM (inactive); in the experiment with BT-549 it was > 100 µM (inactive). Besides, the GI50 with SK-MEL-5 was 88.1 µM (inactive).

In the case of `O=C(C=P(c1ccccc1)(c1ccccc1)c1ccccc1)c1ccc(-c2cccc([N+](=O)[O-])c2)s1`, the GI50 in the experiment with HL-60 is 26 µM (inactive); in the experiment with LOX IMVI, 67 µM (inactive); in the experiment on 786-0 it was > 100 µM (inactive); in the experiment with SW-620, 38.2 µM (inactive); in the experiment with PC-3, 24.9 µM (inactive); with MDA-MB-231, > 100 µM (inactive). Also, the GI50 in the experiment with SK-MEL-28 is 44 µM (inactive); in the experiment on MOLT-4 it was 20.6 µM (inactive); in the experiment with RPMI-8226 it was 19.5 µM (inactive); in the experiment with ACHN, 45.4 µM (inactive); in the experiment on M14, > 100 µM (inactive); with OVCAR-4, 31.3 µM (inactive). For the same compound, the GI50 in the experiment with SK-OV-3 was 36.1 µM (inactive); with SF-539 it was 63.4 µM (inactive); with SNB-19, > 100 µM (inactive); in the experiment with OVCAR-8, 47.3 µM (inactive); with HT-29 it was 29.6 µM (inactive); with BT-549, > 100 µM (inactive). For the same compound, the GI50 in the experiment on SK-MEL-5 was 29.9 µM (inactive).

On to `COc1cc(/C=N/N=C2NCCN2)ccc1O`, for which the GI50 with HL-60, in the experiment with LOX IMVI, with 786-0, with SW-620, in the experiment with PC-3 and with MDA-MB-231 was > 100 µM (inactive) each time. Also, the GI50 in the experiment with SK-MEL-28, with MOLT-4, in the experiment with RPMI-8226, in the experiment on ACHN, in the experiment on M14 and in the experiment on OVCAR-4 was > 100 µM (inactive) each time. The GI50 in the experiment with SK-OV-3, in the experiment with SF-539, in the experiment with SNB-19, in the experiment on OVCAR-8, in the experiment with HT-29 and in the experiment with BT-549 was > 100 µM (inactive) in each case. The GI50 in the experiment on SK-MEL-5 is > 100 µM (inactive).

Take `CC(=O)Nc1ccc(-c2nc3cc(Cl)ccc3o2)cc1`: the GI50 in the experiment with HL-60 was 40.9 µM (inactive); with LOX IMVI it was > 50 µM (inactive); in the experiment with 786-0, > 50 µM (inactive); with SW-620, > 50 µM (inactive); with PC-3, > 50 µM (inactive); in the experiment with MDA-MB-231, > 50 µM (inactive). Besides, the GI50 in the experiment with SK-MEL-28, with MOLT-4, with RPMI-8226, in the experiment on ACHN, in the experiment with M14 and in the experiment on OVCAR-4 was > 50 µM (inactive) throughout. For the same compound, the GI50 with SK-OV-3, with SF-539, in the experiment with SNB-19, in the experiment with OVCAR-8, in the experiment with HT-29 and in the experiment on BT-549 was > 50 µM (inactive) throughout. In addition, the GI50 in the experiment with SK-MEL-5 was 20.4 µM (inactive).

With `COc1cc2c3c(cc(Cl)nc3c1OC)C(O)(CC(=O)c1ccccc1)C(=O)N2` (stereo not given), the GI50 with HL-60 is 1.49 µM (inactive); in the experiment with LOX IMVI, 7.01 µM (inactive); in the experiment on 786-0 it was 8.93 µM (inactive); with SW-620, 4 µM (inactive); in the experiment on PC-3, 15.3 µM (inactive); in the experiment on MDA-MB-231 it was 13.8 µM (inactive). Also, the GI50 is 16 µM (inactive) in the experiment with SK-MEL-28; 1.71 µM (inactive) in the experiment on MOLT-4; 2.55 µM (inactive) in the experiment on RPMI-8226; 14.9 µM (inactive) in the experiment with ACHN; 16.4 µM (inactive) in the experiment with M14; 2.35 µM (inactive) in the experiment on OVCAR-4. Also, the GI50 was 17.4 µM (inactive) in the experiment on SK-OV-3; 0.995 µM (active) with SF-539; 17.7 µM (inactive) in the experiment on SNB-19; 14 µM (inactive) in the experiment with OVCAR-8; 21.7 µM (inactive) in the experiment with HT-29; 16.4 µM (inactive) with BT-549. Besides, in the experiment with SK-MEL-5, the GI50 was 15.9 µM (inactive).

`C[C@H]1CC(=O)[C@@]2(O)C#C/C=C\C#C[C@@H]3Nc4c(cc(O)c5c4C(=O)c4ccccc4C5=O)[C@]24O[C@]314`: the GI50 was < 0.001 µM (active) with HL-60; 0.0175 µM (active) in the experiment with LOX IMVI; 0.0128 µM (active) in the experiment on 786-0; 0.0153 µM (active) in the experiment on SW-620; 0.259 µM (active) in the experiment on PC-3; 0.0873 µM (active) in the experiment on MDA-MB-231. In addition, the GI50 was 0.0338 µM (active) in the experiment with SK-MEL-28; < 0.001 µM (active) with MOLT-4; 0.00356 µM (active) with RPMI-8226; < 0.001 µM (active) in the experiment with ACHN; 0.00916 µM (active) in the experiment with M14; 0.271 µM (active) in the experiment on OVCAR-4. Also, the GI50 in the experiment with SK-OV-3 was 0.0171 µM (active); with SF-539, 0.00316 µM (active); with SNB-19, 0.0199 µM (active); in the experiment with OVCAR-8, 0.0158 µM (active); with HT-29, 0.0619 µM (active); in the experiment with BT-549, 0.0194 µM (active). In addition, the GI50 in the experiment with SK-MEL-5 was 0.00266 µM (active).

Consider `C=C(C)[C@@H]1CCC2=C(CC[C@]3(C)[C@@H]([C@@H](CCC=C(C)C)C(=O)O)[C@H](O)C[C@@]23C)[C@@]1(C)CCC(=O)O` [PORICOIC ACID G], for which the GI50 in the experiment with HL-60 is 0.0393 µM (active); with LOX IMVI it was 61.2 µM (inactive); with 786-0, 85.9 µM (inactive); in the experiment on SW-620, > 100 µM (inactive); with PC-3, 45.6 µM (inactive); in the experiment on MDA-MB-231 it was > 100 µM (inactive). In addition, the GI50 in the experiment on SK-MEL-28 is 66.8 µM (inactive); with MOLT-4 it was > 100 µM (inactive); in the experiment with RPMI-8226 it was 88.7 µM (inactive); in the experiment with ACHN, 75.2 µM (inactive); in the experiment with M14, 99.8 µM (inactive); in the experiment with OVCAR-4, > 100 µM (inactive). For the same compound, the GI50 was > 100 µM (inactive) in the experiment on SK-OV-3; 59.3 µM (inactive) with SF-539; 46 µM (inactive) in the experiment on SNB-19; > 100 µM (inactive) with OVCAR-8; 47.4 µM (inactive) with HT-29; 71.9 µM (inactive) in the experiment on BT-549. The GI50 in the experiment with SK-MEL-5 is 92.7 µM (inactive).
